Here are results for three compounds from publication PMC5826917, “A small molecule inhibitor of Nicotinamide N-methyltransferase for the treatment of metabolic disorders” (Scientific Reports, 2018).

One data set deals with mice on a high-fat diet. Details: method as in PMID 29155147. As to conditions: treatment period of 12 days; cited from earlier work.
For a further data set, the target named is T1, NNMT (Homo sapiens, UniProt P40261).
T1 sequence (P40261 1-264): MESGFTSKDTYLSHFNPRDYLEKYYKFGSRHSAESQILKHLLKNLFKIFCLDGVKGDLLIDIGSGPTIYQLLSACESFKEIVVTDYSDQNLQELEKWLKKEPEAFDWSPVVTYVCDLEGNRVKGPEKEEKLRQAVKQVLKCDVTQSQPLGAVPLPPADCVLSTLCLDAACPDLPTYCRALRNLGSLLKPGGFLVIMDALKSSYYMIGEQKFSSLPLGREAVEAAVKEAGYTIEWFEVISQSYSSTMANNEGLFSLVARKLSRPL
In words: NNMT inhibition by the N-methylated product. The data set is classed as biochemical.

For data set [1], the system named is db/db mice. Nature of the data set: Chronic efficacy study in db/db mice. The following applies: db/db mice. Here is the method: Samples for MNA were analyzed employing a fit-for-purpose LC-MS/MS method. PE-Sciex API-4000 triple quadrupole (PerkinElmerSciex Instruments, Boston, MA) mass spectrometer was employed for this analysis. Samples (5 µL) were injected onto Kinetex HILIC (50 × 4.6 mm, 2.6 µm; Phenomenex, Torrance, CA, USA) column connected to Shimadzu VP (Shimadzu, Japan) LC system. The gradient mobile phase mixture of 0.2% formic acid and acetonitrile was delivered at a flow rate of 0.45 ml min-1 into the mass spectrometer electrospray ionization (ESI) chamber. Quantitation was achieved by MS/MS detection in positive ion mode for MNA and internal standard (d4–MNA). Detection of the ions was performed in the multiple reaction monitoring (MRM) mode, monitoring the transition of the m/z 137 precursor ion to the m/z 92 product ion for MNA and m/z 141 precursor ion to the m/z 84 product ion for d4-MNA (internal standard).
A simple protein precipitation extraction method was followed for extraction of N-methylnicotinamide from plasma and various tissue homogenate samples. The tissue samples were homogenized with 1:3 proportions of phosphate buffer saline (PBS) and this homogenate was used for N-Methylnicotinamide determinations. To an aliquot of ~50 μL of plasma/ liver homogenate/ adipose tissue homogenate samples ~300 µl of acetonitrile containing IS (d4-MNA) solution was added, followed by vortex for ~3 minutes and centrifuged for 10 minutes at 14,000 rpm. The supernatant was separated and transferred to pre-labeled HPLC vials and analyzed by LC-MS/MS system.
Samples for methylated JBSNF-000088 were analyzed employing a fit-for-purpose LC-MS/MS method. PE-Sciex API-5500 triple quadrupole (PerkinElmerSciex Instruments, Boston, MA) mass spectrometer was employed for this analysis. Samples (2 µL) were injected onto Atlantis dC18 (50 × 4.6 mm, 3 µm; Waters, Milford, MA, USA) column connected to Shimadzu VP (Shimadzu, Japan) LC system. The gradient mobile phase mixture of 0.2% formic acid and acetonitrile was delivered at a flow rate of 0.9 mL min-1 into the mass spectrometer electrospray ionization (ESI) chamber. Quantitation was achieved by MS/MS detection in positive ion mode for methylated JBSNF-000088 and internal standard (Tolbutamide). Detection of the ions was performed in the multiple reaction monitoring (MRM) mode, monitoring the transition of the m/z 168 precursor ion to the m/z 128.8, product ion for MNA and m/z 271 precursor ion to the m/z 91 product ion for tolbutamide (internal standard).
Male C57BL6/N (Vivo Bio Tech Ltd, India), ob/ob (B6.V-Lepob/OlaHsd) and its lean control (Envigo laboratories Inc, USA) and db/db (BKS.Cg- + Leprdb/ + Leprdb/OlaHsd) and its lean control (Envigo laboratories Inc, USA) were housed in individually ventilated cages (n = 5/cage) under standard laboratory conditions. The study room environment was maintained at a temperature of 21–24 °C and, relative humidity at 40–70%. The animal rooms were maintained under 12 h light and dark cycle. Animals were provided with ad libitum access to water and food (except where noted otherwise, e.g. during fasting prior for glucose tolerance tests, fasting prior to terminal sacrifice). Animals were acclimatized for 1 week before initiation of studies. For Diet induced obesity (DIO) mice study, C57BL6/N mice were maintained on rodents chow diet (Teklad; Harlan) or HFD (60% Kcal; Research diet) for 14 weeks before study initiation and throughout the study period. ob/ob and db/db mice and their lean controls were maintained on rodents chow diet (Teklad; Harlan). All the experiments were approved by Institutional Animal Ethics Committee (IAEC) of Jubilant Biosys Ltd, India.
Lean control + Vehicle and HFD + Vehicle Control groups (G1 and G2) mice were administered with vehicle.

Data set [2] deals with db/db mice. Details: method as in PMID 12217892, PMID 25256010. As to conditions: two weeks of treatment at 100 µg/kg bid; cited from earlier work.

`C[n+]1cccc2c(N)cccc21` [5-Amino-1-methylquinoline]: the body weight result in the data set on mice on a high-fat diet is “causes weight loss at preserved food intake”.

By IC50 is commonly meant the midpoint of a concentration-inhibition curve. A word on the inhibition: it is how much of the control response was suppressed. Turning to `COc1ccc(C(N)=O)c[n+]1C` [N-methylated product of JBSNF-000088, -carbamoyl-2-methoxy-1-methylpyridin-1-ium trifluoromethanesulfonate], the IC50 against NNMT was greater than 30 µM. At 30 µM the inhibition against NNMT (at 30 µM) was 20%. Further, the “detection of methylated compound after oral administration of JBSNF-000088” value in the data set with db/db mice [1] was “could be detected in plasma and adipose tissue”.

With liraglutide, in the data set on db/db mice [2], the “effect on body weight” value was “no effect on body weight” and the “influence on glucose homeostasis” value is “moderate influence on glucose homeostasis”.
